Reference: ChEMBL document CHEMBL1201862, “PubChem BioAssay data set” (2004)
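Results reflect a 48-hour exposure of cells in 96-well plates to compound at five concentrations. The concentration for 50% growth inhibition is given as GI50.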 Active and inactive are the calls of the source. Rule as the data show it: active = GI50 up to about 1.1 µM and inactive = higher.

Key:
Test in all cases: NCI anticancer screen, dose series, 48 h
[1] = tested on: T47D
[2] = tested on: A549
[3] = tested on: SF-268
[4] = tested on: Hs-578T
[5] = tested on: SNB-75
[6] = tested on: BT-549
[7] = tested on: NCI-H460
[8] = tested on: K562
[9] = tested on: MCF7
[10] = tested on: NCI-H226
[11] = tested on: NCI/ADR-RES
[12] = tested on: SK-OV-3
[13] = tested on: SW-620
[14] = tested on: PC-3
[15] = tested on: HCT-15
[16] = tested on: Malme-3M
[17] = tested on: SNB-19
[18] = tested on: UACC-62
[19] = tested on: COLO 205
[20] = tested on: MDA-MB-231
[21] = tested on: NCI-H23
[22] = tested on: 786-0
[23] = tested on: RPMI-8226
[24] = tested on: EKVX
[25] = tested on: CCRF-CEM
[26] = tested on: ACHN
[27] = tested on: UACC-257
[28] = tested on: SK-MEL-28
[29] = tested on: HT-29
[30] = tested on: A498
[31] = tested on: SK-MEL-5
[32] = tested on: U-251
[33] = tested on: TK-10
[34] = tested on: RXF 393
[35] = tested on: HOP-92
[36] = tested on: HCT-116
[37] = tested on: HCC 2998
[38] = tested on: LOX IMVI
[39] = tested on: SN12C
[40] = tested on: IGROV-1
[41] = tested on: HOP-62
[42] = tested on: DU-145
[43] = tested on: SF-295
[44] = tested on: OVCAR-8
[45] = tested on: M14
[46] = tested on: SK-MEL-2
[47] = tested on: OVCAR-5
[48] = tested on: UO-31
[49] = tested on: HL-60
[50] = tested on: NCI-H522
[51] = tested on: SR
[52] = tested on: MOLT-4
[53] = tested on: OVCAR-4
[54] = tested on: OVCAR-3
[55] = tested on: KM12
[56] = tested on: CAKI-1
[57] = tested on: MDA-MB-435

Measured: GI50

Cc1cn(CC2=NC3CCCCC3N2)c(=O)[nH]c1=O (stereo not given)
inactive: [1] > 100 µM | [2] > 100 µM | [3] > 100 µM | [4] > 100 µM | [5] > 100 µM | [6] > 100 µM | [7] > 100 µM | [8] > 100 µM | [9] > 100 µM | [10] > 100 µM | [11] > 100 µM | [12] > 100 µM | [13] > 100 µM | [14] > 100 µM | [16] > 100 µM | [17] > 100 µM | [18] > 100 µM | [19] > 100 µM | [20] > 100 µM | [21] > 100 µM | [22] > 100 µM | [23] > 100 µM | [24] > 100 µM | [25] > 100 µM | [26] > 100 µM | [27] > 100 µM | [28] > 100 µM | [29] > 100 µM | [30] > 100 µM | [31] > 100 µM | [32] > 100 µM | [33] > 100 µM | [34] > 100 µM | [35] > 100 µM | [36] > 100 µM | [37] > 100 µM | [38] > 100 µM | [39] > 100 µM | [40] > 100 µM | [41] > 100 µM | [42] > 100 µM | [43] > 100 µM | [44] > 100 µM | [45] > 100 µM | [46] > 100 µM | [47] > 100 µM | [48] > 100 µM | [49] > 100 µM | [50] > 100 µM | [51] > 100 µM | [52] > 100 µM
> 100 µM: [15]

CN1C(=O)C(=Cc2ccc(Br)cc2)C(=O)N(C)C1=O
inactive: [1] > 100 µM | [2] > 100 µM | [3] > 100 µM | [5] > 100 µM | [6] > 100 µM | [53] > 100 µM | [54] > 100 µM | [7] > 100 µM | [8] 5.45 µM | [9] > 100 µM | [10] > 100 µM | [11] > 100 µM | [12] > 100 µM | [13] > 100 µM | [14] > 100 µM | [17] > 100 µM | [18] > 100 µM | [19] > 100 µM | [20] > 100 µM | [21] > 100 µM | [22] > 100 µM | [23] > 100 µM | [24] > 100 µM | [25] > 100 µM | [26] > 100 µM | [27] > 100 µM | [28] > 100 µM | [30] > 100 µM | [31] > 100 µM | [32] > 100 µM | [33] > 100 µM | [34] 40.8 µM | [35] > 100 µM | [36] > 100 µM | [37] > 100 µM | [38] > 100 µM | [55] > 100 µM | [41] > 100 µM | [56] > 100 µM | [42] > 100 µM | [43] > 100 µM | [45] > 100 µM | [46] > 100 µM | [57] > 100 µM | [47] > 100 µM | [48] > 100 µM | [52] 14.1 µM
> 100 µM: [15]
